Reference: patent US20090291923A1, “TRIOXANE DIMERS HAVING HIGH ANTICANCER AND LONG-LASTING ANTIMALARIAL ACTIVITIES” (priority 2005, published 2009)
≈ marks a conversion by molar mass, not a printed value. Like-named read-outs stand apart in the source and are kept apart here.

Assays:
[1] = system: chloroquine-sensitive Plasmodium falciparum (NF 54) parasites; assay: in vitro antimalarial potency, standard assay; format: cell-based; settings: for IC50: Plasmodium falciparum, read-out: IC50 (nM), Antimalarial Activities in vitro
[2] = solubility in aqueous pH 7.4 buffer; format: physicochemical; settings: aqueous pH 7.4 buffer solution, pH 7.4, 25° C.
[3] = system: Plasmodium berghei infected mice; format: in vivo
[4] = system: malaria-infected mice (GFP strain P. berghei); assay: oral in vivo antimalarial activity in malaria-infected mice, three doses over three days
GFP strain P. berghei = assay: in vivo antimalarial ED50 in mice, single administration SC or PO; settings: for ED50: Plasmodium berghei, in Mus musculus; for overt toxicity / behavioral modification in the mice: single dose of 3, 10 or 30 mg/kg SC or PO
[5] = system: panel of 60 human cancer cell lines; assay: NCI panel of 60 human cancer cell lines, growth inhibition; format: cell-based; settings: nanomolar to micromolar concentrations
Excerpt: Cell growth was inhibited in a dose-dependent manner.

[6] = system: human cervical cancer cell line HeLa; assay: XTT proliferation / cell viability assay, HeLa; format: cell-based; settings: for IC50: Homo sapiens, XTT based assay, read-out: IC50, HeLa cells
[7] = system: normal ectocervical cells HCX (primary normal cervical cells); assay: XTT cell viability assay, normal cervical cells; format: cell-based, human
Protocol: Primary human ectocervical keratinocytes were derived from fresh cervical tissue obtained from the Cooperative Human Tissue Network (CHTN) within 24 hours after removal from patients undergoing hysterectomies for benign non-cervical uterine diseases. Standard overnight dispase treatment and subsequent trypsinization procedures were used to isolate ectocervical epithelial cells, which were cultured in serum-free keratinocyte medium (KSFM) supplemented with bovine pituitary extract and epidermal growth factor according to the manufacturer's protocol (Invitrogen, Carlsbad, Calif.). […]
(§1) Cell viability was determined using 2.5×10^3 cells were plated in triplicates in 96 well tissue culture microplates in the appropriate culture medium and incubated for 24 hours in a humidified atmosphere at 37° C., 5% CO2. […] Cell viability (absorbance) was measured using an ELISA reader at 450 nm with a reference wavelength at 650 nm. Results were calculated as the percentage of cultures exposed to solvent control only. […]
as §1, with “2.5×10^3” for “Cell viability was determined using 2.5×10^3”

[8] = chloroquine-sensitive P. falciparum NF 54, quadruplicates

SMILES: C[C@H]1[C@@H](CCc2cc(C(=O)O)c(C(=O)O)cc2CC[C@H]2O[C@@H]3O[C@@]4(C)CC[C@H]5[C@H](C)CC[C@@H]([C@H]2C)[C@@]35OO4)O[C@@H]2O[C@@]3(C)CC[C@H]4[C@H](C)CC[C@@H]1[C@@]24OO3 [dimer 6]
- IC50 [1, 8]: 360 nM
- solubility [2]: ~14 mg/mL (≈ 18.5 mM)

SMILES: C[C@H]1[C@H](OC(=O)CCC(=O)[O-])O[C@@H]2O[C@@]3(C)CC[C@H]4[C@H](C)CC[C@@H]1[C@@]24OO3.[Na+] [sodium artesunate]
- life of the mice prolonged to ([3]; 30 mg/kg single dose, no drug 7 days): 14 days
- malaria parasites killed ([3]; single dose 30 mg/kg, subcutaneous): similarly efficacious
- Avg Mouse Survival (oral, 3 × 10 mg/kg) [4]: 6.7
- PO ED50 (GFP strain P. berghei; mice, single administration, oral): 4.0 mg/kg
- SC ED50 (GFP strain P. berghei; mice, single administration, subcutaneous): 2.2 mg/kg

SMILES: COC(=O)c1cc(CC[C@H]2O[C@@H]3O[C@@]4(C)CC[C@H]5[C@H](C)CC[C@@H]([C@H]2C)[C@@]35OO4)c(CC[C@H]2O[C@@H]3O[C@@]4(C)CC[C@H]5[C@H](C)CC[C@@H]([C@H]2C)[C@@]35OO4)cc1C(=O)OC [dimer 5]
- IC50 [1, 8]: 1.6 nM
- preliminary growth inhibitory activity, selectivity in the panel [5]: extremely selective and highly potent at inhibiting the growth of only non-small cell lung carcinoma HOP-92 cells, melanoma SK-MEL-5 cells, and breast cancer BT-549 cells
- times more potent than trioxane monomer DHA [6]: 10-20 times
- IC50 [6]: 500 nM
- toxicity to primary normal cervical cells [7]: without being toxic
- ED50 (GFP strain P. berghei; sc, read-out: SC ED50): 0.71 mg/kg
- overt toxicity / behavioral modification in the mice (GFP strain P. berghei): Neither over toxicity nor behavioral modification was observed

SMILES: C[C@H]1[C@@H](CCc2cc(CO)c(CO)cc2CC[C@H]2O[C@@H]3O[C@@]4(C)CC[C@H]5[C@H](C)CC[C@@H]([C@H]2C)[C@@]35OO4)O[C@@H]2O[C@@]3(C)CC[C@H]4[C@H](C)CC[C@@H]1[C@@]24OO3 [dimer 7]
- IC50 [1, 8]: 0.77 nM
- times more antimalarially active than artemisinin ([1]; in vitro, P. falciparum NF 54): approximately 10 times
- times more potent than trioxane monomer DHA [6]: 110-220 times
- IC50 [6]: 46.5 nM
- toxicity to primary normal cervical cells [7]: without being toxic
- ED50 (GFP strain P. berghei; po, read-out: PO ED50): 2.6 mg/kg
- ED50 (GFP strain P. berghei; sc, read-out: SC ED50): 0.06 mg/kg
- times more efficacious than sodium artesunate administered PO (GFP strain P. berghei; mice, PO): approximately 1.5 times
- overt toxicity / behavioral modification in the mice (GFP strain P. berghei): Neither over toxicity nor behavioral modification was observed

SMILES: C=C(CC[C@H]1O[C@@H]2O[C@@]3(C)CC[C@H]4[C@H](C)CC[C@@H]([C@H]1C)[C@@]24OO3)C(=C)CC[C@H]1O[C@@H]2O[C@@]3(C)CC[C@H]4[C@H](C)CC[C@@H]([C@H]1C)[C@@]24OO3 [dimer 4]
- IC50 [1, 8]: 2.9 nM

SMILES: C[C@H]1[C@@H](CCc2cc3c(cc2CC[C@H]2O[C@@H]4O[C@@]5(C)CC[C@H]6[C@H](C)CC[C@@H]([C@H]2C)[C@@]46OO5)COP(=O)(Oc2ccccc2)OC3)O[C@@H]2O[C@@]3(C)CC[C@H]4[C@H](C)CC[C@@H]1[C@@]24OO3 (some centres unmarked) [dimer 9]
- IC50 [1]: 3.7 nM

SMILES: C[C@@H]1CC[C@H]2[C@@H](C)C(=O)O[C@@H]3O[C@]4(C)CC[C@@H]1[C@]32OO4 [Artemisinin, artemisinin, reference compound]
- IC50 [1, 8]: 6.6 ± 0.76 nM
